The target of this assay is T1, human GPR120 (Homo sapiens, UniProt Q5NUL3).
T1 construct: expressed in transfected cells
T1 sequence (Q5NUL3 1-361): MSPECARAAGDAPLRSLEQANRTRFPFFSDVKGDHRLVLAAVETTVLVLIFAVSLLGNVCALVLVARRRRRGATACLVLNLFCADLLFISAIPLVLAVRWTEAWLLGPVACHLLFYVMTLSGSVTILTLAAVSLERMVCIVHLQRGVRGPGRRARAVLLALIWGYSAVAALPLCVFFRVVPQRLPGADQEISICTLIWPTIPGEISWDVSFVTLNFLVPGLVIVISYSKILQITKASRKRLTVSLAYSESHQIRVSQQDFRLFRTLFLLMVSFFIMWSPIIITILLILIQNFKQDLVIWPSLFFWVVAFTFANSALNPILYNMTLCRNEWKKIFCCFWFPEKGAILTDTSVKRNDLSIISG
As to the kind of experiment: Human GPR120 IP1 Assay (inositol phosphate turnover, CisBio IP-One kit). The class given is cell-based. The following applies: IP1 accumulation in CHO-K1 cells stably expressing the short form of human GPR120; 60 min compound incubation; 4-parameter fit; read-out: hGPR120 EC50. An excerpt:
Human GPR120 IP1 Assay Principle
The binding of small molecule agonists to the G-protein-coupled receptor GPR120 activates phospholipase C, and leads to the generation of inositol 1,4,5-trisphosphate (InsP3 or IP3). IP3 is subsequently de-phosphorylated to IP1, which accumulates in cells and is stable in the presence of lithium chloride.
In the present method, agonist-induced activation of the human GPR120 receptor was monitored by measuring the accumulation of IP1 in CHO-K1 cells that were stably expressing the short form of human GPR120 (Accession #NM_001195755). Following agonist addition, GPR120 activation and subsequent accumulation of IP1 was measured using a homogeneous Time Resolved Fluorescence-based ELISA commercially available from CisBio (IP-one ELISA Kit). The IP-One ELISA was a competitive immunoassay which uses IP1 labeled with […] and a terbium cryptate-labeled anti-IP1 monoclonal antibody. […] The signal loss was then back calculated to IP1 concentration using an IP1 standard curve. Determination of IP1 concentration was a direct measure of GPR120 activation and was used to determine compound potency (EC50).
Generation of GPR120-Expressing Cells:
Human GPR120 stable cell-lines were generated in CHO cells. The expression plasmids were transfected using lipofectamine (Life Technologies) following manufacturer's instructions. Stable cell-lines were generated following drug selection and single cell cloning.
Inositol Phosphate Turnover (IP1) Assay:
The assay was performed in 384-well format. CHO cells stably expressing human GPR120 were plated at […] per well in growth medium (DMEM/F12, 10% fetal calf serum). Cell plates were then incubated 16 hours at 37 degrees in a 5% CO2 incubator. Measurement of Inositol Phosphate Turnover (IP1) was performed using the CisBio IP-One kit (Part number 62IPAPEB). After the 16 hour incubation, the growth media was removed by centrifugation using the BlueWasher (AusWasher GUI Ver. v1.0.1.8) Protocol #21-“Light Dry” and 10 ul of stimulation buffer (prepared as described in the kit) was added to each well. In a separate plate, compounds were diluted in DMSO (200-fold over the final concentration in the assay well) and 50 nl was acoustically transferred to the appropriate well in the assay cell plate. The plates were then incubated for 60 minutes at 37 degrees in a 5% CO2 incubator. 10 ul of detection buffer (also prepared as described in the IP-One kit) was added to each well and the plates were incubated at room temperature for 60 minutes in the dark. The plates were then read in a Perkin Elmer EnVision or equivalent reader able to measure FRET. Fluorescent ratio of emission at 665 and 620 nm was then converted to the IP1 concentration by back calculating from an IP1 standard curve prepared at the time of the assay. The data was normalized to % activity using a reference compound, and the EC50 values were determined using a standard 4-parameter fit.
Broadly, the EC50 is the concentration that produces a half-maximal response. For the molecule `Cc1c(CCC(=O)O)ccc2c1CCN(c1cc(OC3CCC3)cc(F)c1C#N)C2` [Example 157, 3-{2-[2-cyano-5-(cyclobutyloxy) 3-fluorophenyl]-5-methyl-1,2,3,4-tetrahydroisoquinolin-6-yl}-propanoic acid], the EC50 came out at 15 nM.
Consider `CC(CC(=O)O)c1ccc2c(c1)CCN(c1cc(OC(F)(F)F)ccc1F)C2` (single isomer, unassigned) [Example 8, 3-(2-(2-fluoro-5-(trifluoromethoxy)phenyl)-1,2,3,4-tetrahydro-isoquinolin-6-yl)-butanoic acid], for which the EC50 was 414 nM.
Take `O=C(O)CCc1ccc2c(c1)CCN(c1nc(OC3CCC3)ccc1F)C2` [Example 5, 3-(2-(6-cyclobutoxy-3-fluoropyridin-2-yl)-1,2,3,4-tetrahydro-isoquinolin-6-yl)-propanoic acid]: the EC50 worked out at 65 nM.
For the molecule `N#Cc1cc(OC(F)(F)F)cc(N2CCc3c(ccc([C@H]4C[C@@H]4C(=O)O)c3F)C2)c1F` [Example 107, (1S,2S)-2-(2-(3-cyano-2-fluoro-5-(trifluoromethoxy)phenyl)-5-fluoro-1,2,3,4-tetrahydroisoquinolin-6-yl)cyclopropanecarboxylic acid], the EC50 came to 122 nM.
Consider `O=C(O)CCc1ccc2c(c1)CCN(c1cc(Oc3ccccn3)cc(C(F)F)c1F)C2` [Example 2, 3-(2-(3-(difluoromethyl)-2-fluoro-5-(pyridin-2-yloxy)phenyl)-1,2,3,4-tetrahydro-isoquinolin-6-yl)propanoic acid], for which the EC50 worked out at 17 nM.
Regarding `N#Cc1c(F)cc(OC2CCC2)cc1N1CCc2cc(CCC(=O)O)ccc2C1` [Example 55, 3-{2-[2-cyano-5-(cyclobutyloxy)-3-fluorophenyl]-1,2,3,4-tetrahydro-isoquinolin-6-yl}propanoic acid], the EC50 is 25 nM.
On to `N#Cc1cc(OC(F)(F)F)cc(N2CCc3c(ccc([C@@H]4C[C@H]4C(=O)O)c3F)C2)c1F` [Example 109, (1R,2R)-2-{2-[3-cyano-2-fluoro-5-(trifluoromethoxy)phenyl]-5-fluoro-1,2,3,4-tetrahydroisoquinolin-6-yl}cyclopropane-carboxylic acid], for which the EC50 was determined as 22 nM.
Consider `O=C(O)[C@@H]1C[C@H]1c1ccc2c(c1F)CCN(c1cc(OC(F)(F)F)cc(Cl)c1F)C2` [Example 111, (1R,2R)-2-{2-[3-chloro-2-fluoro-5-(trifluoromethoxy)-phenyl]-5-fluoro-1,2,3,4-tetrahydroisoquinolin-6-yl}cyclo-propanecarboxylic acid], for which the half-maximal effective concentration (EC50) stood at 32 nM.
The figure for `O=C(O)CCc1ccc2c(c1F)CCN(c1cc(OC(F)(F)F)cc(Cl)c1F)C2` [Example 65, 3-{2-[3-chloro-2-fluoro-5-(trifluoromethoxy)phenyl]-5-fluoro-1,2,3,4-tetra-hydroisoquinolin-6-yl} propanoic acid] is 37 nM.
For `CO[C@H]1C[C@H](Oc2cc(C#N)c(F)c(N3CCc4cc(CCC(=O)O)ccc4C3)c2)C1` [Example 34, 3-(2-{3-cyano-2-fluoro-5-[(trans-3-methoxycyclobutyl)oxy]phenyl}-1,2,3,4-tetrahydroisoquinolin-6-yl)propanoic acid], the EC50 is 184 nM.
As to `C[C@H]1C[C@H](Oc2cc(F)c(F)c(N3CCc4cc([C@H]5C[C@@H]5C(=O)O)ccc4C3)c2)C1` [Example 98, (1S,2S)-2-(2-{2,3-difluoro-5-[(trans-3-methylcyclobutyl)oxy]phenyl}-1,2,3,4-tetrahydroiso-quinolin-6-yl)-cyclopropane-carboxylic acid], the EC50 is 100 nM.
Take `COc1cc(OC(F)(F)F)cc(N2CCc3cc(CCC(=O)O)ccc3C2)c1F` [Example 13, 3-{2-[2-fluoro-3-methoxy-5-(trifluoromethoxy)phenyl]-1,2,3,4-tetrahydroisoquinolin-6-yl}-propanoic acid]: the 50% effective concentration (EC50) was determined as 18 nM.
Regarding `Cc1ccc(-n2nc(C)c(F)c2CN2CCc3cc(CCC(=O)O)ccc3C2)cc1` [Example 143, 3-(2-{[4-fluoro-3-methyl-1-(4-methylphenyl)-1H-pyrazol-5-yl]methyl}-1,2,3,4-tetrahydroisoquinolin-6-yl)propanoic acid], the EC50 was found to be 395 nM.
To `N#Cc1c(F)cc(OC(F)(F)F)cc1N1CCc2cc(CCC(=O)O)ccc2C1` [Example 44, 3-{2-[2-cyano-3-fluoro-5-(trifluoro-methoxy)phenyl]-1,2,3,4-tetra-hydroisoquinolin-6-yl}propanoic acid] belongs 2360 nM; to “3-{2-[2-cyano-5-(cyclobutyloxy) phenyl]-1,2,3,4-tetrahydroiso- quinolin-6-yl}propanoic acid [Example 46]”, 5390 nM; to `C[C@H]1C[C@H](Oc2cc(F)c(F)c(N3CCc4c(ccc([C@H]5C[C@@H]5C(=O)O)c4F)C3)c2)C1` [Example 108, (1S,2S)-2-(2-(2,3-difluoro-5-((1r,3S)-3-methylcyclobutoxy)phenyl)-5-fluoro-1,2,3,4-tetra-hydroisoquinolin-6-yl)cyclopropanecarboxylic acid], 122 nM.
To `O=C(O)CCc1ccc2c(c1F)CCN(c1c(-c3ccc(Cl)cc3)nsc1C(F)(F)F)C2` [Example 59, 3-(2-(3-(4-chlorophenyl)-5-(trifluoromethyl)isothiazol-4-yl)-5-fluoro-1,2,3,4-tetrahydroisoquinolin-6-yl)propanoic acid] belongs 1630 nM.
Consider `O=C(O)CCc1ccc2c(c1)CCN(Cc1c(-c3ccc(Cl)cc3)nsc1C(F)(F)F)C2` [Example 50, 3-(2-{[3-(4-chlorophenyl)-5-(trifluoromethyl)isothiazol-4-yl]methyl}-1,2,3,4-tetrahydroiso-quinolin-6-yl)propanoic acid], for which the EC50 turned out to be 348 nM.
Regarding `Cc1ccc(-n2nc(C)c(C#N)c2N2CCc3cc(OCCCCO)ccc3C2)cc1` [Example 139, 5-[6-(4-hydroxybutoxy)-3,4-dihydro-isoquinolin-2(1H)-yl]-3-methyl-1-(4-methylphenyl)-1H-pyrazole-4-carbonitrile], the EC50 was 187 nM.
Regarding `CO[C@H]1C[C@H](Oc2ccc(C#N)c(N3CCc4cc(CCC(=O)O)ccc4C3)c2)C1` [Example 48, 3-(2-{2-cyano-5-[(trans-3-methoxy-cyclobutyl)oxy]phenyl}-1,2,3,4-tetrahydroisoquinolin-6-yl)-propanoic acid], the EC50 turned out to be 596 nM.
The figure for `Cc1ccc(-n2nc(C)c(C#N)c2N2CCc3cc(OCCCO)ccc3C2)cc1` [Example 144, 5-[6-(3-hydroxypropoxy)-3,4-dihydroisoquinolin-2(1H)-yl]-3-methyl-1-(4-methylphenyl)-1H-pyrazole-4-carbonitrile] is 4300 nM.
In the case of `O=C(O)[C@H]1C[C@@H]1c1ccc2c(c1)CCN(Cc1cc(C(F)(F)F)cc(Cl)c1F)C2` [Example 93, (1S,2S)-2-{2-[3-chloro-2-fluoro-5-(trifluoromethyl)benzyl]-1,2,3,4-tetrahydroisoquinolin-6-yl} cyclopropanecarboxylic acid], the EC50 came to 350 nM.
Take `CC(Cc1ccc2c(c1F)CCN(c1cc(OC(F)(F)F)cc(Cl)c1F)C2)C(=O)O` (single isomer, unassigned) [Example 69, 3-{2-[3-chloro-2-fluoro-5-(trifluoromethoxy)phenyl]-5-fluoro-1,2,3,4-tetrahydroisoquinolin-6-yl}-2-methyl-propanoic acid]: the EC50 worked out at 231 nM.
The figure for `Cc1ccc(Oc2cc(C(F)F)c(F)c(N3CCc4cc(CCC(=O)O)ccc4C3)c2)nc1` [Example 16, 3-(2-{3-(difluoromethyl)-2-fluoro-5-[(5-methylpyridin-2-yl)oxy]phenyl}-1,2,3,4-tetrahydroiso-quinolin-6-yl)propanoic acid] is 22 nM.

(Values after patent US11161819B2, “Substituted tetrahydroisoquinoline compounds useful as GPR120 agonists” (Merck Sharp & Dohme Corp., priority 2016, dated 2021).)
